# Molecular target: T1, human P2X4 (Homo sapiens, UniProt Q99571)
# T1 sequence (Q99571 1-388): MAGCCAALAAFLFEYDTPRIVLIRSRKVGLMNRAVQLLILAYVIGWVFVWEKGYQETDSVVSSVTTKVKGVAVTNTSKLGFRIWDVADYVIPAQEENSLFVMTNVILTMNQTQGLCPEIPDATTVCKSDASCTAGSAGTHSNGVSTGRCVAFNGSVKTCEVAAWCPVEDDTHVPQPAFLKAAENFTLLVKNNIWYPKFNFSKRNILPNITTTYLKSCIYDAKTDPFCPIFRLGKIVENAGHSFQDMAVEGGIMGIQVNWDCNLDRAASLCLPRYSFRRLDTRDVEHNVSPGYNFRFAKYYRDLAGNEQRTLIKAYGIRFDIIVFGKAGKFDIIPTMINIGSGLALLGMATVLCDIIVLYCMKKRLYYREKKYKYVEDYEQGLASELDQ
# Assay: Human P2X4 HEK Cell FLIPR Assay
# Format: cell-based
# Settings: agonist Bz-ATP at EC80; for Emax: HEK293, HEK293 cells, percentage of maximal inhibition, read-out: Human P2X4 HEK Cells (FLIPR Assay) avg Efficacy [%]; for IC50: HEK293 cells, individual values listed where some fall outside detection range
# Procedure: HEK293 cells stably expressing human P2X4 were plated in poly-D-lysine-coated 384-well plates at a seeding density of 30000 cells/well and incubated overnight. P2X4 function was assessed by measuring intracellular calcium changes using the calcium-chelating dye Fluo8-AM (Molecular Devices) on a fluorescent imaging plate reader (FLEX/FLIPR station; Molecular Devices). On the day of the assay, the medium was removed and the cells were incubated for 30 min at 37° C. and 5% CO2 in 30 μL of dye buffer (Hank's balanced salt solution, 10 mM HEPES, 1.8 mM CaCl2, 1 mM MgCl2, 2 mM probenecid, 5 mM D-glucose monohydrate, 5 μM Fluo8-AM, pH=7.4). Compounds diluted in probenecid buffer (Hank's balanced salt solution, 10 mM HEPES, 1.8 mM CaCl2, 1 mM MgCl2, 2 mM probenecid, 5 mM D-glucose monohydrate, pH=7.4) were added in a volume of 10 μL and allowed to incubate for 30 min at room temperature. The final assay DMSO concentration was 0.5%. The agonist, Bz-ATP (Tocris), was added in a volume of 10 μL at a concentration representing the EC80 value. The EC80 value of Bz-ATP was determined each assay day prior to compound profiling. The fluorescence was measured for an interval of 120 sec at 2 sec intervals. The excitation and emission wavelengths used to monitor fluorescence were 470-495 nm and 515-575 nm, respectively. The data was analyzed based on the increase in peak relative fluorescence units (RFU) compared to the basal fluorescence and the data was normalized to the agonist control. The compounds were tested in triplicates per plate and mean values were plotted in Excel XLFit to determine IC50 values, percentage of maximal inhibition and the Hill coefficients.
SMILES,Emax,IC50
"NS(=O)(=O)c1cc(NC(=O)Cc2ccccc2Cl)ccc1-n1nnc2c(F)cc(F)cc21 [Example 481, 2-(2-Chlorophenyl)-N-[4-(4,6-difluoro-1H-benzotriazol-1-yl)-3-sulfamoylphenyl]acetamide]",103%,0.05 µM
"CC(C)(O)c1cnn(-c2ccc(NC(=O)Cc3ccccc3Cl)cc2S(N)(=O)=O)c1 [Example 238, 2-(2-Chlorophenyl)-N-{4-[4-(2-hydroxypropan-2-yl)-1H-pyrazol-1-yl]-3-sulfamoyl-phenyl}acetamide]",76%,0.682 µM
"Cc1ncc(-c2ccc(NC(=O)Cc3ccccc3Cl)cc2S(N)(=O)=O)s1 [Example 423, 2-(2-Chlorophenyl)-N-[4-(2-methyl-1,3-thiazol-5-yl)-3-sulfamoylphenyl]acetamide]",86%,0.053 µM
"NS(=O)(=O)c1cc(NC(=O)Cc2ccccc2Cl)ccc1-n1cnc2cccnc21 [Example 43, 2-(2-Chlorophenyl)-N-[4-(3H-imidazo[4,5-b]pyridin-3-yl)-3-sulfamoylphenyl]-acetamide]",87%,0.21 µM
"NS(=O)(=O)c1cc(NC(=O)Cc2ccccc2F)cnc1-n1cc(Cl)cn1 [Example 388, N-[6-(4-Chloro-1H-pyrazol-1-yl)-5-sulfamoylpyridin-3-yl]-2-(2-fluorophenyl)acetamide]",68%,0.196 µM
"N#Cc1cn(-c2ccc(NC(=O)Cc3ccccc3Cl)cc2S(N)(=O)=O)nc1Br [Example 540, N-[4-(3-Bromo-4-cyano-1H-pyrazol-1-yl)-3-sulfamoylphenyl]-2-(2-chlorophenyl)acetamide]",79%,0.001 µM
"NS(=O)(=O)c1cc(NC(=O)Cc2cccc(C(F)(F)F)c2Cl)ccc1-n1cc(Cl)cn1 [Example 90, N-[4-(4-Chloro-1H-pyrazol-1-yl)-3-sulfamoylphenyl]-2-[2-chloro-3-(trifluoromethyl)-phenyl]acetamide]",85%,0.774 µM
"Cn1cc(-c2ccc(NC(=O)Cc3ccccc3Cl)cc2S(N)(=O)=O)cn1 [Example 360, 2-(2-Chlorophenyl)-N-[4-(1-methyl-1H-pyrazol-4-yl)-3-sulfamoylphenyl]acetamide]",93%,–
"NS(=O)(=O)c1cc(NC(=O)Cc2ccccc2Cl)ccc1-n1cnc(C(F)F)n1 [Example 17, 2-(2-Chlorophenyl)-N-{4-[3-(difluoromethyl)-1H-1,2,4-triazol-1-yl]-3-sulfamoyl-phenyl}acetamide]",89%,0.288 µM
"NS(=O)(=O)c1cc(NC(=O)Cc2ccccc2Cl)ccc1-c1cc[nH]c1 [Example 527, 2-(2-Chlorophenyl)-N-[4-(1H-pyrrol-3-yl)-3-sulfamoylphenyl]acetamide]",86%,0.125 µM
"NS(=O)(=O)c1cc(NC(=O)Cc2ccccc2Cl)ccc1-n1cnc2ncccc21 [Example 44, 2-(2-Chlorophenyl)-N-[4-(1H-imidazo[4,5-b]pyridin-1-yl)-3-sulfamoylphenyl]-acetamide]",97%,0.378 µM
"CN(C)C(=O)c1cnn(-c2ccc(NC(=O)Cc3ccccc3Cl)cc2S(N)(=O)=O)c1 [Example 399, 1-(4-{[(2-Chlorophenyl)acetyl]amino}-2-sulfamoylphenyl)-N,N-dimethyl-1H-pyrazole-4-carboxamide]",92%,0.084 µM
"N#Cc1cnn(-c2ccc(NC(=O)Cc3ccc(F)cc3)cc2S(N)(=O)=O)c1 [Example 192, N-[4-(4-Cyano-1H-pyrazol-1-yl)-3-sulfamoylphenyl]-2-(4-fluorophenyl)acetamide]",69%,0.575 µM
"Cc1ccc(CC(=O)Nc2ccc(-c3cncc(C(F)(F)F)c3)c(S(N)(=O)=O)c2)cc1 [Example 454, 2-(4-Methylphenyl)-N-{3-sulfamoyl-4-[5-(trifluoromethyl)pyridin-3-yl]phenyl}acetamide]",58%,1.44 µM
"N#Cc1cnn(-c2ccc(NC(=O)Cc3ccc(Cl)cc3Cl)cc2S(N)(=O)=O)c1 [Example 186, N-[4-(4-Cyano-1H-pyrazol-1-yl)-3-sulfamoylphenyl]-2-(2,4-dichlorophenyl)acetamide]",78%,0.04 µM
"Cc1ccc(Cl)c(CC(=O)Nc2ccc(-n3cc(C(F)(F)F)cn3)c(S(N)(=O)=O)c2)c1 [Example 128, 2-(2-Chloro-5-methylphenyl)-N-{3-sulfamoyl-4-[4-(trifluoromethyl)-1H-pyrazol-1-yl]-phenyl}acetamide]",91%,0.107 µM
"N#Cc1cnn(-c2ccc(NC(=O)Cc3cccc(C(F)(F)F)c3Cl)cc2S(N)(=O)=O)c1 [Example 206, 2-[2-Chloro-3-(trifluoromethyl)phenyl]-N-[4-(4-cyano-1H-pyrazol-1-yl)-3-sulfamoylphenyl]acetamide]",98%,0.029 µM
"NS(=O)(=O)c1cc(NC(=O)Cc2ccc(C(F)F)cc2)ccc1-n1cc(Br)cn1 [Example 73, N-[4-(4-Bromo-1H-pyrazol-1-yl)-3-sulfamoylphenyl]-2-[4-(difluoromethyl)-phenyl]acetamide]",52%,0.168 µM
"NS(=O)(=O)c1cc(NC(=O)Cc2ccccc2Cl)ccc1-c1csc(C(F)(F)F)n1 [Example 433, 2-(2-Chlorophenyl)-N-{3-sulfamoyl-4-[2-(trifluoromethyl)-1,3-thiazol-4-yl]phenyl}acetamide]",28%,> 25 µM
"Cc1ccc(CC(=O)Nc2ccc(-c3ccc(Cl)nc3)c(S(N)(=O)=O)c2)c(F)c1 [Example 471, N-[4-(6-Chloropyridin-3-yl)-3-sulfamoylphenyl]-2-(2-fluoro-4-methylphenyl)acetamide]",92%,0.269 µM
"Cc1ccc(Cl)c(CC(=O)Nc2ccc(-n3cc(Cl)cn3)c(S(N)(=O)=O)c2)c1 [Example 97, 2-(2-Chloro-5-methylphenyl)-N-[4-(4-chloro-1H-pyrazol-1-yl)-3-sulfamoylphenyl]-acetamide]",103%,0.201 µM
"COc1cncc(-c2ccc(NC(=O)Cc3ccccc3Cl)cc2S(N)(=O)=O)c1 [Example 341, 2-(2-Chlorophenyl)-N-[4-(5-methoxypyridin-3-yl)-3-sulfamoylphenyl]acetamide]",86%,0.041 µM
"NS(=O)(=O)c1cc(NC(=O)Cc2ccccc2F)ccc1-n1cc(C(F)(F)F)cn1 [Example 20, 2-(2-Fluorophenyl)-N-{3-sulfamoyl-4-[4-(trifluoromethyl)-1H-pyrazol-1-yl]phenyl}-acetamide]",67%,–
"NS(=O)(=O)c1cc(NC(=O)Cc2ccccc2Cl)ccc1-c1cccc(Cl)c1 [Example 356, 2-(2-Chlorophenyl)-N-(3′-chloro-2-sulfamoylbiphenyl-4-yl)acetamide]",96%,0.063 µM
"NS(=O)(=O)c1c(-n2cc(C(F)(F)F)cn2)ccc(NC(=O)Cc2ccccc2Cl)c1C(F)(F)F [Example 531, 2-(2-Chlorophenyl)-N-{3-sulfamoyl-2-(trifluoromethyl)-4-[4-(trifluoromethyl)-1H-pyrazol-1-yl]phenyl}acetamide]",84%,2.32 µM
"Cc1ccccc1CC(=O)Nc1ccc(-n2cc(F)cn2)c(S(N)(=O)=O)c1 [Example 154, N-[4-(4-Fluoro-1H-pyrazol-1-yl)-3-sulfamoylphenyl]-2-(2-methylphenyl)acetamide]",84%,0.03 µM
"CN(C)c1ncn(-c2ccc(NC(=O)Cc3ccccc3Cl)cc2S(N)(=O)=O)n1 [Example 34, 2-(2-Chlorophenyl)-N-{4-[3-(dimethylamino)-1H-1,2,4-triazol-1-yl]-3-sulfamoyl-phenyl}acetamide]",79%,0.448 µM
"Cc1ccc(CC(=O)Nc2ccc(-n3cc(C#N)cn3)c(S(N)(=O)=O)c2)cc1 [Example 195, N-[4-(4-Cyano-1H-pyrazol-1-yl)-3-sulfamoylphenyl]-2-(4-methylphenyl)acetamide]",68%,0.086 µM
"NS(=O)(=O)c1cc(NC(=O)Cc2ccccc2Cl)ccc1-n1cc(C(F)F)cn1 [Example 379, 2-(2-Chlorophenyl)-N-{4-[4-(difluoromethyl)-1H-pyrazol-1-yl]-3-sulfamoylphenyl}acetamide]",87%,0.029 µM
